Reference: ChEMBL document CHEMBL1201862, “PubChem BioAssay data set” (2004)
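96-well plates; 48 h exposure; 5 concentrations. Endpoints by linear interpolation between flanking doses. Not reached: highest tested concentration assigned. GI50: concentration for 50% inhibition of growth.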 Active and inactive are the calls of the source. Cut-off read from the data, not from the text of the source: active = GI50 up to about 1.1 µM and inactive = higher.

Tests used:
Assay in all cases: DTP human tumour cell line panel, 48 h
A498 = tested on: A498
ACHN = tested on: ACHN
EKVX = tested on: EKVX
HCT-116 = tested on: HCT-116
HT-29 = tested on: HT-29
IGROV-1 = tested on: IGROV-1
K562 = tested on: K562
MDA-MB-435 = tested on: MDA-MB-435
NCI-H23 = tested on: NCI-H23
OVCAR-4 = tested on: OVCAR-4
OVCAR-8 = tested on: OVCAR-8
RPMI-8226 = tested on: RPMI-8226
RXF 393 = tested on: RXF 393
SF-539 = tested on: SF-539
SK-MEL-28 = tested on: SK-MEL-28
SK-OV-3 = tested on: SK-OV-3
SNB-19 = tested on: SNB-19
SW-620 = tested on: SW-620
U-251 = tested on: U-251
UACC-257 = tested on: UACC-257

Measured: GI50

O=C(ON=C1c2ccccc2C(Br)C(Br)c2ccccc21)c1ccccc1 (stereo not drawn)
inactive: A498 25.2 µM | ACHN 17.7 µM | EKVX 23.1 µM | HCT-116 14.6 µM | HT-29 17.1 µM | IGROV-1 2.44 µM | K562 2.95 µM | MDA-MB-435 17.3 µM | NCI-H23 19.4 µM | OVCAR-4 13.2 µM | OVCAR-8 9.18 µM | RPMI-8226 4.57 µM | RXF 393 14.1 µM | SF-539 7.01 µM | SK-MEL-28 18.2 µM | SK-OV-3 18.6 µM | SNB-19 20.7 µM | SW-620 8.49 µM | U-251 17.7 µM | UACC-257 15.6 µM

CC(=O)/C=C/C=C(\C)CC/C=C(\C)CC(C)C
inactive: A498 22 µM | ACHN 29.9 µM | EKVX 37.3 µM | HCT-116 21.8 µM | HT-29 30.1 µM | IGROV-1 28.9 µM | K562 21.6 µM | MDA-MB-435 27.9 µM | NCI-H23 23.6 µM | OVCAR-4 42.1 µM | OVCAR-8 23.7 µM | RPMI-8226 17.1 µM | RXF 393 16.2 µM | SF-539 21.7 µM | SK-MEL-28 33.9 µM | SK-OV-3 55.7 µM | SNB-19 42.4 µM | SW-620 17.1 µM | U-251 25.4 µM | UACC-257 23.3 µM

Cc1nn(C(=O)c2ccccc2O)c2c1C(c1ccc(O)cc1O)SC(=N)N2 (stereo not drawn)
inactive: A498 3.61 µM | ACHN 4.75 µM | EKVX 8.11 µM | HCT-116 3.83 µM | HT-29 > 10 µM | IGROV-1 3.48 µM | K562 2.63 µM | MDA-MB-435 4.05 µM | NCI-H23 3.98 µM | OVCAR-4 2.94 µM | OVCAR-8 6.04 µM | RPMI-8226 2.89 µM | RXF 393 5.52 µM | SF-539 3.77 µM | SK-MEL-28 8.91 µM | SK-OV-3 3.6 µM | SNB-19 4.86 µM | SW-620 5.04 µM | U-251 5.58 µM

CN(C)Cc1cc(C(=O)/C=C/c2ccc(Cl)c(Cl)c2)cc(CN(C)C)c1O
inactive: A498 3.17 µM | ACHN 1.67 µM | EKVX 8.36 µM | HCT-116 2.77 µM | HT-29 1.24 µM | IGROV-1 3.37 µM | K562 1.31 µM | MDA-MB-435 3.26 µM | NCI-H23 5.69 µM | OVCAR-4 4.61 µM | OVCAR-8 1.68 µM | RPMI-8226 1.99 µM | RXF 393 2.48 µM | SF-539 2.77 µM | SK-MEL-28 2.57 µM | SNB-19 2.56 µM | SW-620 1.45 µM | U-251 3.08 µM | UACC-257 2.31 µM

Cc1cccc2c1C/C(=C\c1cccc(C)c1C(=O)O)C2=O
inactive: A498 > 100 µM | ACHN > 100 µM | EKVX > 100 µM | HCT-116 > 100 µM | HT-29 70.1 µM | IGROV-1 > 100 µM | K562 > 100 µM | MDA-MB-435 > 100 µM | NCI-H23 > 100 µM | OVCAR-4 > 100 µM | OVCAR-8 > 100 µM | RPMI-8226 46.6 µM | RXF 393 > 100 µM | SF-539 > 100 µM | SK-MEL-28 > 100 µM | SNB-19 > 100 µM | SW-620 > 100 µM | U-251 > 100 µM | UACC-257 > 100 µM

O=C(c1ccc(/N=C/c2ccccc2O)cc1)c1ccc(/N=C/c2ccccc2O)cc1
inactive: A498 > 100 µM | ACHN > 100 µM | EKVX > 100 µM | HCT-116 > 100 µM | HT-29 > 100 µM | IGROV-1 > 100 µM | K562 > 100 µM | MDA-MB-435 > 100 µM | NCI-H23 > 100 µM | OVCAR-4 > 100 µM | RPMI-8226 > 100 µM | RXF 393 > 100 µM | SF-539 > 100 µM | SK-MEL-28 > 100 µM | SK-OV-3 > 100 µM | SNB-19 > 100 µM | SW-620 > 100 µM | U-251 > 100 µM

COc1ccc2c(=O)c3cc([N+](=O)[O-])ccc3n(C)c2c1
inactive: A498 > 100 µM | ACHN > 100 µM | EKVX 6.37 µM | IGROV-1 > 100 µM | K562 > 100 µM | MDA-MB-435 > 100 µM | OVCAR-4 > 100 µM | OVCAR-8 > 100 µM | RPMI-8226 > 100 µM | RXF 393 > 100 µM | SF-539 > 100 µM | SK-MEL-28 > 100 µM | SNB-19 > 100 µM | SW-620 > 100 µM | U-251 > 100 µM | UACC-257 > 100 µM

C(=N\N=C1NCCN1)/c1ccc2ccccc2c1
inactive: A498 14 µM | ACHN 16.5 µM | EKVX 12.6 µM | HCT-116 15.4 µM | HT-29 14.5 µM | IGROV-1 9.95 µM | K562 11.6 µM | MDA-MB-435 15.6 µM | NCI-H23 19.6 µM | OVCAR-4 18.1 µM | OVCAR-8 16.4 µM | RPMI-8226 12 µM | RXF 393 17.7 µM | SF-539 19 µM | SK-MEL-28 14.3 µM | SK-OV-3 10.8 µM | SW-620 16.3 µM | U-251 13.9 µM | UACC-257 13.2 µM

COC(=O)c1c(OC(C)=O)ccc2c1c1c(OC(C)=O)c3ccccc3c(OC(C)=O)c1n2Cc1ccccc1
inactive: A498 13.7 µM | ACHN 11.8 µM | EKVX 2.56 µM | HCT-116 3.96 µM | HT-29 12.2 µM | IGROV-1 4.09 µM | K562 5.33 µM | MDA-MB-435 9.95 µM | NCI-H23 6.03 µM | OVCAR-4 2.39 µM | OVCAR-8 9.44 µM | RPMI-8226 1.52 µM | RXF 393 5.77 µM | SF-539 1.61 µM | SK-MEL-28 9.77 µM | SK-OV-3 3.67 µM | SNB-19 9.51 µM | U-251 2.43 µM | UACC-257 16.3 µM

O=C1CC(C(O)C(O)C(O)CO)CC(=O)N1 (stereo not drawn)
inactive: A498 > 100 µM | ACHN > 100 µM | EKVX > 100 µM | HCT-116 > 100 µM | HT-29 > 100 µM | IGROV-1 > 100 µM | K562 > 100 µM | MDA-MB-435 > 100 µM | NCI-H23 > 100 µM | OVCAR-4 > 100 µM | OVCAR-8 > 100 µM | RPMI-8226 > 100 µM | RXF 393 > 100 µM | SF-539 > 100 µM | SK-MEL-28 > 100 µM | SNB-19 > 100 µM | SW-620 > 100 µM | U-251 > 100 µM | UACC-257 > 100 µM
